# Assay results published in patent publication US12686673B2 (Blueprint Medicines Corporation, priority 2020, dated 2026).
# Legend:
# Type in all cases: cell-based
# [1] = target: HER2 (A775_G776insYVMA) expressing Ba/F3 stable cell line (Homo sapiens, UniProt P04626, DUP772-775, cells depend on it); assay: Cellular proliferation (Alamar Blue) assay, HER2 A775_G776insYVMA Ba/F3; conditions: 72 hr, read-out: YVMA IC50
# Method: • 1. EGFR(D770_N771insSVD) expressing Ba/F3 stable cell line • 2. EGFR (A767_dupASV) expressing Ba/F3 stable cell line • 3. A431 cells • 4. EGFR (H773insNPH) expressing Ba/F3 stable cell line • 5. HER2 (A775_G776insYVMA) expressing Ba/F3 stable cell line Assay Procedure: • 1. Seed cells at 5000 for A431 and 15,000 cells for Ba/F3 in 100 μL/well in complete media (for A431: DMEM with […] and for Ba/F3 cells: RPMI with 10% FBS) in 96-well tissue culture plate. Leave outer wells without cells for background measurements. Incubate at 37 degree Celsius in […] humidified incubator for 16-18 hours. • 2. Add 0.025 ml of 5× concentration compound dilution or DMSO control. Final compound concentration range is 10-0.0005 μM prepared in 3-fold serial dilutions. Incubate for 72 hr at 37 degree Celsius in […] humidified incubator. • 3. Add 0.0125 ml Alamar Blue™ reagent to each well with multi-channel pipette and tap gently on each side of the plate to mix. Incubate for 3 hours at 37 degree Celsius in 5% CO2 humidified incubator. • 4. […] Data analysis was performed using XLfit 5.5.0.5.
# A431 cells = assay: Cellular proliferation (Alamar Blue) assay, A431; conditions: Homo sapiens, A-431; A431 cells, 72 hr, Alamar Blue; read-out: A431 IC50
# [2] = target: EGFR (A767_dupASV) expressing Ba/F3 stable cell line (Homo sapiens, UniProt P00533, DUP767-769, cells depend on it); assay: Cellular proliferation (Alamar Blue) assay, EGFR A767_dupASV Ba/F3; conditions: 72 hr, read-out: A767 IC50
# Method in brief: (§1)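 Alamar Blue read-out, 3 h at 37 °C, after 72 hr compound exposure of Ba/F3 transfectants (15,000 cells/well, RPMI + 10% FBS, plated 16-18 h earlier).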
# [3] = target: EGFR(D770_N771insSVD) expressing Ba/F3 stable cell line (Homo sapiens, UniProt P00533, DUP768-770, cells depend on it); assay: Cellular proliferation (Alamar Blue) assay, EGFR D770_N771insSVD Ba/F3; conditions: 72 hr, read-out: D770 IC50
# Method in brief: as §1
# Chain of EGFR (A767_dupASV) expressing Ba/F3 stable cell line (P00533 with tags, fused parts or gaps DUP767-769): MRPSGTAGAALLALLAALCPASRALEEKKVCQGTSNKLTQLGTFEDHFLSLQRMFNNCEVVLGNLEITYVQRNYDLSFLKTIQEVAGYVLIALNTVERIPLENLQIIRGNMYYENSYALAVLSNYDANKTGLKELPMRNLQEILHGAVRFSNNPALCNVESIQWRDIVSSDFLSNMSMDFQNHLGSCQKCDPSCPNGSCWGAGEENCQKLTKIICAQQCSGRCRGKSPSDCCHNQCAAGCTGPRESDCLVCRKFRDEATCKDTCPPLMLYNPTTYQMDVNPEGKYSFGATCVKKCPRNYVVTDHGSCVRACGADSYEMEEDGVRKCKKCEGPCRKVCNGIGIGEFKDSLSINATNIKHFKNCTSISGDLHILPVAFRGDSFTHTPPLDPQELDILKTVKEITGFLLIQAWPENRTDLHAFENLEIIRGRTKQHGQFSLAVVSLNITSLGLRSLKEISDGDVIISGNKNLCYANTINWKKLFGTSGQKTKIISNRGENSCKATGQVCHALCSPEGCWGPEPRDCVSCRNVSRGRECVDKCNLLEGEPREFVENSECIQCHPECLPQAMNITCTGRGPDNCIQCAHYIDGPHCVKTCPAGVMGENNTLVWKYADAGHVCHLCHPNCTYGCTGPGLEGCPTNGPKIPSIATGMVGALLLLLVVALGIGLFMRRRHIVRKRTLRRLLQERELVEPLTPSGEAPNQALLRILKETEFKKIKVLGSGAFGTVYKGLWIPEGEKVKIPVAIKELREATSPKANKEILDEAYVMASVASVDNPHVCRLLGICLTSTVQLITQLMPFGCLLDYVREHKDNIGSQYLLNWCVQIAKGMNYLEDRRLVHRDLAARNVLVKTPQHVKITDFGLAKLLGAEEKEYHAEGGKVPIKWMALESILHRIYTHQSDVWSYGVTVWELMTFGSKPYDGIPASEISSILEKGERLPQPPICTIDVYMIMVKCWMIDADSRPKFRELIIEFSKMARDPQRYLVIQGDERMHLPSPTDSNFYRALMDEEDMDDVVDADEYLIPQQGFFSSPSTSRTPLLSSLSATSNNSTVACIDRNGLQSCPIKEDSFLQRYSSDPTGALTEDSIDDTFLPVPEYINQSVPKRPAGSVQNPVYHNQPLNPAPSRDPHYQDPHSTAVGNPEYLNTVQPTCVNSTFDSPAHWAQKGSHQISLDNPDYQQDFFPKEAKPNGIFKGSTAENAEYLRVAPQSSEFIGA
# Chain of HER2 (A775_G776insYVMA) expressing Ba/F3 stable cell line (P04626 with tags, fused parts or gaps DUP772-775): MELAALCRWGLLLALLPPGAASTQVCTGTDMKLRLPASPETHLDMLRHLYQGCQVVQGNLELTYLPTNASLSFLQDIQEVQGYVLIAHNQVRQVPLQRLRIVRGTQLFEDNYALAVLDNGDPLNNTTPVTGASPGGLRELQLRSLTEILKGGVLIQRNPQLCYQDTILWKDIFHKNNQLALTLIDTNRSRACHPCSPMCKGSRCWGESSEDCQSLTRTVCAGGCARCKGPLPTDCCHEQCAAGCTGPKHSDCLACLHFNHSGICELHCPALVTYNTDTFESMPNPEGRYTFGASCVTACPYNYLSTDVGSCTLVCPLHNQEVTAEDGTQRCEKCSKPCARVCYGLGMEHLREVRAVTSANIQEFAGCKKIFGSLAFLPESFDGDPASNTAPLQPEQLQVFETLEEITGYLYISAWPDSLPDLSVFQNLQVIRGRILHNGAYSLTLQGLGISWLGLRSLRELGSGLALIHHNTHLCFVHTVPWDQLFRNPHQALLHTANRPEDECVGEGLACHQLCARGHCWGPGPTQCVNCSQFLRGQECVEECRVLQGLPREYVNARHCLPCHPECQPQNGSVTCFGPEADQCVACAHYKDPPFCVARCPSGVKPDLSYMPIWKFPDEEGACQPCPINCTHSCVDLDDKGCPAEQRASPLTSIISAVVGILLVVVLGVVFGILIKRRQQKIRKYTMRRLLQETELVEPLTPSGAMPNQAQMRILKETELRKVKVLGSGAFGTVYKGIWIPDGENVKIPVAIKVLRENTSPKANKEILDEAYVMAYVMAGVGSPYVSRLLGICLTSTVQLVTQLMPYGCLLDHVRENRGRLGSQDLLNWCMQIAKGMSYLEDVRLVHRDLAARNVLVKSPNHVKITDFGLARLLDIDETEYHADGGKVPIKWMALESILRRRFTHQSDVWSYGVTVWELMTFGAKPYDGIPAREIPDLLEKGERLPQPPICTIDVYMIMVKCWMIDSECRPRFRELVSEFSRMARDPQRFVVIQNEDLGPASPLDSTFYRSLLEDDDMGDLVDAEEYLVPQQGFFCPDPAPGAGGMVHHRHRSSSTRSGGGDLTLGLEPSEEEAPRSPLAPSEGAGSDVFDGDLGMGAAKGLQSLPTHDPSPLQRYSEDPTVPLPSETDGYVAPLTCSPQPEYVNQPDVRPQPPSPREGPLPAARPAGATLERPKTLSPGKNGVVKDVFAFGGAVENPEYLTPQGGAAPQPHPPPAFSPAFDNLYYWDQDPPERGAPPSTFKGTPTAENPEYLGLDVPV
# Chain of EGFR(D770_N771insSVD) expressing Ba/F3 stable cell line (P00533 with tags, fused parts or gaps DUP768-770): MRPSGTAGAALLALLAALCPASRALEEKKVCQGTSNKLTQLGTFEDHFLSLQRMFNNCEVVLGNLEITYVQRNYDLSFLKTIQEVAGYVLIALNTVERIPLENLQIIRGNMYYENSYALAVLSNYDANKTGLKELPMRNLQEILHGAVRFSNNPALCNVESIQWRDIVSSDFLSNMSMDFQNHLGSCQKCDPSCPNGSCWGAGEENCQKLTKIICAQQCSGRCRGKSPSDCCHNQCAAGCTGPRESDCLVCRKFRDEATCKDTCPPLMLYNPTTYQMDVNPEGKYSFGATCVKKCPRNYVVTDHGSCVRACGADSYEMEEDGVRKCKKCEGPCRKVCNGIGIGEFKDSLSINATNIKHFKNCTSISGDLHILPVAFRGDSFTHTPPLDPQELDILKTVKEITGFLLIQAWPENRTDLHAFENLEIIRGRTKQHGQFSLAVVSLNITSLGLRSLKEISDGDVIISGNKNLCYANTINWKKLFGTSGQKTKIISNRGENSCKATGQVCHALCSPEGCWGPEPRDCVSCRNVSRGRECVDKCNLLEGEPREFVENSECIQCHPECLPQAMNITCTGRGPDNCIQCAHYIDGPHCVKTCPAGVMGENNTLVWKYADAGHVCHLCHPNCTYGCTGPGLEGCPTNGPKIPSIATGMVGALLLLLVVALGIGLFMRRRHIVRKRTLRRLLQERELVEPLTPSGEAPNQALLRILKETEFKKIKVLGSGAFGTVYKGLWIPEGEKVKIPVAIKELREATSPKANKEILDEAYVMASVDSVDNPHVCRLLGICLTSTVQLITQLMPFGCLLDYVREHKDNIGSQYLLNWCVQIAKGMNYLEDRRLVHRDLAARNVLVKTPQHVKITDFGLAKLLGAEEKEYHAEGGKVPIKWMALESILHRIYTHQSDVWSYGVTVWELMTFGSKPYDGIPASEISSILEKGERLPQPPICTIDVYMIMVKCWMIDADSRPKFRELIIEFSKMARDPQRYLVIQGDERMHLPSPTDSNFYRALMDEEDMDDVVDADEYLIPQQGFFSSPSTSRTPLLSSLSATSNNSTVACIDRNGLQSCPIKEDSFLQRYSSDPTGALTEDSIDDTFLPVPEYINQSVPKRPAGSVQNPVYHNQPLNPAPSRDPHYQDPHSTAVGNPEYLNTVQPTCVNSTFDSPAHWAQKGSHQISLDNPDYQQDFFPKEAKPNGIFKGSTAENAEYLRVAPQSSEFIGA
GI50 [1],IC50 (A431 cells),GI50 [2],GI50 [3],SMILES
1810 nM,,,,"C=CC(=O)Nc1ccc(F)c(Nc2nc(Nc3cnn(C)c3)ncc2-c2ccccc2Cl)c1 [Compound 150, N-(3-((5-(2-chlorophenyl)-2-((1-methyl-1H-pyrazol-4-yl)amino)pyrimidin-4-yl)amino)-4-fluorophenyl)acrylamide 2,2,2-trifluoroacetate]"
,3920 nM,9700 nM,9030 nM,"C=CC(=O)Nc1cccc(Oc2nc(Nc3cnn(C)c3)ncc2N2CCN(C)CC2)c1 [Compound 223, N-(3-((2-((1-methyl-1H-pyrazol-4-yl)amino)-5-(4-methylpiperazin-1-yl)pyrimidin-4-yl)oxy)phenyl)acrylamide]"
,> 10000 nM,> 10000 nM,> 10000 nM,"C=CC(=O)Nc1cccc(Nc2nc(Nc3cnn(C)c3)nc(NC)c2-c2ccc(C(F)(F)F)cc2)c1 [Compound 224, N-[3-({2-[(1-methyl-1H-pyrazol-4-yl)amino]-6-(methylamino)-5-[4-(trifluoromethyl)phenyl]pyrimidin-4-yl}amino)phenyl] prop-2-enamide]"
,637 nM,2690 nM,1240 nM,"C=CC(=O)Nc1ccc(F)c(Nc2nc(Nc3cnoc3)ncc2-c2ccc(C(F)(F)F)cc2)c1 [Compound 225, N-[4-fluoro-3-({2-[(1,2-oxazol-4-yl)amino]-5-[4-(trifluoromethyl)phenyl]pyrimidin-4-yl}amino)phenyl]prop-2-enamide]"
,1780 nM,1610 nM,793 nM,"C=CC(=O)Nc1ccc(F)c(Nc2nc(Nc3cnn(C)c3)ncc2C2=CCN(C)C2)c1 [Compound 226, N-[4-fluoro-3-({2-[(1-methyl-1H-pyrazol-4-yl)amino]-5-(1-methyl-2,5-dihydro-1H-pyrrol-3-yl)pyrimidin-4-yl}amino)phenyl]prop-2-enamide]"
,6060 nM,7090 nM,> 10000 nM,"C=CC(=O)Nc1ccc(F)c(Nc2nc(Nc3cnn(C)c3)ncc2C2CCN(C)C2)c1 (stereo not shown) [Compound 227, N-[4-fluoro-3-({2-[(1-methyl-1H-pyrazol-4-yl)amino]-5-(1-methylpyrrolidin-3-yl)pyrimidin-4-yl}amino)phenyl]prop-2-enamide]"
,222 nM,426 nM,318 nM,"C=CC(=O)Nc1cccc(N(C)c2nc(Nc3cnn(C)c3)ncc2-c2ccc(C(F)(F)F)cc2)c1 [Compound 229, N-(3-(methyl(2-((1-methyl-1H-pyrazol-4-yl)amino)-5-(4-(trifluoromethyl)phenyl)pyrimidin-4-yl)amino)phenyl)acrylamide]"
,4210 nM,3900 nM,8550 nM,"C=CC(=O)Nc1ccc(F)c(Nc2nc(Nc3cnn(C)c3)nc3ccc(C(F)(F)F)cc23)c1 [Compound 231, N-(4-fluoro-3-((2-((1-methyl-1H-pyrazol-4-yl)amino)-6-(trifluoromethyl)quinazolin-4-yl)amino)phenyl)acrylamide]"
,539 nM,1130 nM,724 nM,"C=CC(=O)Nc1ccc(F)c(Nc2nc(Nc3cccnc3)ncc2-c2ccc(C(F)(F)F)cc2)c1 [Compound 232, N-(4-fluoro-3-((2-(pyridin-3-ylamino)-5-(4-(trifluoromethyl)phenyl)pyrimidin-4-yl)amino)phenyl)acrylamide]"
,1130 nM,948 nM,383 nM,"C=CC(=O)Nc1cccc(Oc2nc(Nc3ccc(CN(C)C)cc3)ncc2-c2ccc(C(F)(F)F)cc2)c1 [Compound 234, N-(3-((2-((4-((dimethylamino)methyl)phenyl)amino)-5-(4-(trifluoromethyl)phenyl)pyrimidin-4-yl)oxy)phenyl)acrylamide]"
,1070 nM,980 nM,619 nM,"C=CC(=O)Nc1cccc(Oc2nc(Nc3cnn(CCN(C)C)c3)ncc2-c2ccc(C(F)(F)F)cc2)c1 [Compound 235, N-(3-((2-((1-(2-(dimethylamino)ethyl)-1H-pyrazol-4-yl)amino)-5-(4-(trifluoromethyl)phenyl)pyrimidin-4-yl)oxy)phenyl)acrylamide]"
,> 10000 nM,> 10000 nM,> 10000 nM,"C=CC(=O)Nc1cccc(Oc2nc(NCCN(C)C)ncc2-c2ccc(C(F)(F)F)cc2)c1 [Compound 236, N-(3-((2-((2-(dimethylamino)ethyl)amino)-5-(4-(trifluoromethyl)phenyl)pyrimidin-4-yl)oxy)phenyl)acrylamide]"
,9770 nM,9880 nM,10000 nM,"C=C=CC(=O)Nc1ccc(F)c(Nc2nc(Nc3cnn(C)c3)ncc2-c2ccc(C(F)(F)F)cc2)c1 [Compound 251, N-(4-fluoro-3-((2-((1-methyl-1H-pyrazol-4-yl)amino)-5-(4-(trifluoromethyl)phenyl)pyrimidin-4-yl)amino)phenyl)buta-2,3-dienamide]"
> 10000 nM,,,,"C=CC(=O)Nc1ccc(F)c(Nc2nc(Nc3cnn(C)c3)ncc2C2CCOCC2)c1 [Compound 255, N-(4-fluoro-3-((2-((1-methyl-1H-pyrazol-4-yl)amino)-5-(tetrahydro-2H-pyran-4-yl)pyrimidin-4-yl)amino)phenyl)acrylamide]"
,> 10000 nM,> 10000 nM,> 10000 nM,"Cn1cc(Nc2ncc(-c3ccc(C(F)(F)F)cc3)c(Nc3cc(N)ccc3F)n2)cn1 [Compound 257, N^4-(5-amino-2-fluorophenyl)-N^2-(1-methyl-1H-pyrazol-4-yl)-5-(4-(trifluoromethyl)phenyl)pyrimidine-2,4-diamine]"
222 nM,195 nM,,,"C=CC(=O)Nc1ccc(F)c(Nc2nc(Nc3cnn(C)c3)ncc2C2=CCOC2)c1 [Compound 261, N-(3-{[5-(2,5-dihydrofuran-3-yl)-2-[(1-methyl-1H-pyrazol-4-yl)amino]pyrimidin-4-yl]amino}-4-fluorophenyl) prop-2-enamide]"
4430 nM,,,,"C=CC(=O)Nc1ccc(F)c(Nc2nc(Nc3cnn(C)c3)ncc2-c2cccc3ncccc23)c1 [Compound 262, N-(4-fluoro-3-((2-((1-methyl-1H-pyrazol-4-yl)amino)-5-(quinolin-5-yl)pyrimidin-4-yl)amino)phenyl)acrylamide]"
465 nM,145 nM,,,"C=CC(=O)Nc1ccc(F)c(Nc2nc(Nc3cn(C)nc3Cl)ncc2-c2ccccc2F)c1 [Compound 264, N-(3-((2-((3-chloro-1-methyl-1H-pyrazol-4-yl)amino)-5-(2-fluorophenyl)pyrimidin-4-yl)amino)-4-fluorophenyl)acrylamide]"
1380 nM,768 nM,,,"C=CC(=O)Nc1ccc(F)c(Nc2nc(Nc3cnn(C)c3)ncc2C2CCOC2)c1 (stereo not shown) [Compound 266, N-{4-fluoro-3-([2-[(1-methyl-1H-pyrazol-4-yl)amino]-5-(oxolan-3-yl)pyrimidin-4-yl}amino)phenyl] prop-2-enamide]"
> 10000 nM,5800 nM,,,"C=CC(=O)Nc1ccc(F)c(Nc2nc(Nc3cnn(C)c3)ncc2-c2ccccc2N(C)C)c1 [Compound 267, N-(3-((5-(2-(dimethylamino)phenyl)-2-((1-methyl-1H-pyrazol-4-yl)amino)pyrimidin-4-yl)amino)-4-fluorophenyl)acrylamide]"
> 10000 nM,3440 nM,,,"C=CC(=O)Nc1ccc(F)c(Nc2nc(Nc3cnn(C)c3)ncc2-c2cccc3ccncc23)c1 [Compound 268, N-(4-fluoro-3-((5-(isoquinolin-8-yl)-2-((1-methyl-1H-pyrazol-4-yl)amino)pyrimidin-4-yl)amino)phenyl)acrylamide]"
,20 nM,248 nM,111 nM,"Cn1cc(Nc2ncc(-c3ccc(CC(F)(F)F)cc3)c(Nc3cc(NC(=O)/C=C/CF)ccc3F)n2)cn1 [Compound 303, (E)-4-fluoro-N-(4-fluoro-3-((2-((1-methyl-1H-pyrazol-4-yl)amino)-5-(4-(2,2,2-trifluoroethyl)phenyl)pyrimidin-4-yl)amino)phenyl)but-2-enamide]"
,790 nM,969 nM,1520 nM,"CN(C)C/C=C/C(=O)Nc1ccc(F)c(Nc2nc(Nc3cnn(C)c3)ncc2-c2ccc(Br)cc2)c1 [Compound 304, (E)-N-(3-((5-(4-bromophenyl)-2-((1-methyl-1H-pyrazol-4-yl)amino)pyrimidin-4-yl)amino)-4-fluorophenyl)-4-(dimethylamino)but-2-enamide]"
,> 10000 nM,> 10000 nM,> 10000 nM,"C=CC(=O)Nc1ccc(F)c(Nc2nc(N(C)c3cnn(C)c3)ncc2-c2cc(F)cc(OC)c2)c1 [Compound 305, N-(4-fluoro-3-((5-(3-fluoro-5-methoxyphenyl)-2-(methyl(1-methyl-1H-pyrazol-4-yl)amino)pyrimidin-4-yl)amino)phenyl)acrylamide]"
